According to ChEMBL document CHEMBL1153470, “Design, synthesis, and biological evaluation of 16-substituted 4-azasteroids as tissue-selective androgen receptor modulators (SARMs)” (J Med Chem, 2009):
≈ marks a conversion by molar mass, not a printed value.

Key:
[1] = Clearance in Beagle dog at 0.2 mg/kg, iv; type: ADME, organism-based, Canis lupus familiaris; parameters: dose 0.2 mg/kg, route intravenous; details: in vivo
[2] = Half life in Beagle dog at 0.2 mg/kg, iv; type: ADME, organism-based, Canis lupus familiaris; parameters: dose 0.2 mg/kg, route intravenous; details: in vivo
[3] = Aqueous solubility at pH 2; type: physicochemical
[4] = AUC in ovariectomized Sprague-Dawley rat at 1 mg/kg, sc; details: female, plasma
[5] = AUC in orchidectomized Sprague-Dawley rat at 10 mg/kg, sc; type: ADME, organism-based; parameters: dose 10 mg/kg, route subcutaneous; details: male, plasma
[6] = Oral bioavailability in Beagle dog at 1 mg/kg; type: ADME, organism-based, Canis lupus familiaris; details: in vivo
[7] = AUC in orchidectomized Sprague-Dawley rat at 30 mg/kg, sc; type: ADME, organism-based; parameters: dose 30 mg/kg, route subcutaneous; details: male, plasma
[8] = AUC in ovariectomized Sprague-Dawley rat at 10 mg/kg, sc; type: ADME, organism-based; parameters: dose 10 mg/kg, route subcutaneous; details: female, plasma
[9] = in vivo; details: female, Sprague-Dawley, rat, plasma, sc, 3 mg/kg
[10] = in vivo; details: male, Sprague-Dawley, rat, plasma, sc, 3 mg/kg

Row | SMILES | clearance [1] [mL/min/kg] | half-life [2] [h] | further results
1 | C[C@@H]1C[C@H]2[C@@H]3CC[C@H]4N(C)C(=O)C=C[C@]4(C)[C@H]3CC[C@]2(C)[C@H]1O | 20.2 | 1 | –
2 | COC[C@@H]1C[C@H]2[C@@H]3CC[C@H]4N(C)C(=O)C=C[C@]4(C)[C@H]3CC[C@]2(C)[C@H]1O | 11 | 1.5 | –
3 | Cc1ncc(/C=C2\C[C@H]3[C@@H]4CC[C@H]5N(C)C(=O)C=C[C@]5(C)[C@H]4CC[C@]3(C)[C@H]2O)cn1 | 1.5 | 18.7 | solubility [3]: 230 µg/mL (≈ 564 µM); AUC [4]: 17 µM·h
4 | CN1C(=O)C=C[C@]2(C)[C@H]3CC[C@]4(C)[C@@H](O)/C(=C/c5cncnc5)C[C@H]4[C@@H]3CC[C@@H]12 | 15.3 | 2.3 | AUC [5]: 4.3 µM·h; bioavailability [6]: 51%; solubility [3]: 570 µg/mL (≈ 1450 µM); AUC [7]: 16.2 µM·h; AUC [8]: 17 µM·h
5 | CN1C(=O)C=C[C@]2(C)[C@H]3CC[C@]4(C)[C@@H](O)[C@H](Cc5cccc(F)c5)C[C@H]4[C@@H]3CC[C@@H]12 | 22 | 3 | –
6 | CN1C(=O)C=C[C@]2(C)[C@H]3CC[C@]4(C)[C@@H](O)/C(=C/c5cc(F)cc(F)c5)C[C@H]4[C@@H]3CC[C@@H]12 | 6.8 | 9.1 | –
7 | C/C=C1\C[C@H]2[C@@H]3CC[C@H]4N(C)C(=O)C=C[C@]4(C)[C@H]3CC[C@]2(C)[C@H]1O | 42.8 | 1 | –
8 | CN1C(=O)C=C[C@]2(C)[C@H]3CC[C@]4(C)[C@@H](O)CC[C@H]4[C@@H]3CC[C@@H]12 | 32.3 | 0.7 | –
9 | COc1ncc(/C=C2\C[C@H]3[C@@H]4CC[C@H]5N(C)C(=O)C=C[C@]5(C)[C@H]4CC[C@]3(C)[C@H]2O)cn1 | 4.6 | 12.7 | –
10 | CN1C(=O)C=C[C@]2(C)[C@H]3CC[C@]4(C)[C@@H](O)/C(=C/c5cccc(F)c5)C[C@H]4[C@@H]3CC[C@@H]12 | 15.2 | 4.9 | –
11 | CN1C(=O)C=C[C@]2(C)[C@H]3CC[C@]4(C)[C@@H](O)/C(=C/c5cccnc5)C[C@H]4[C@@H]3CC[C@@H]12 | 5 | 17.1 | bioavailability [6]: 21%
12 | CNc1ncc(/C=C2\C[C@H]3[C@@H]4CC[C@H]5N(C)C(=O)C=C[C@]5(C)[C@H]4CC[C@]3(C)[C@H]2O)cn1 | 0.8 | 10.9 | –
13 | C[C@]12CCC(=O)C[C@@H]1CC[C@@H]1[C@@H]2CC[C@]2(C)[C@@H](O)CC[C@@H]12 [STANOLONE] | – | – | AUC [9]: 0.02 µM·h; AUC [10]: 0.08 µM·h
